Experimental data reported in patent US8192962B2, “Processes for detecting toxic substances” (Daikin Industries, Ltd., priority 2001, dated 2012).

Tested on: Genes belonging to other category
Assay: DNA chip mRNA expression in yeast, genes belonging to other category (Table 9)
Assay type: cell-based, Saccharomyces cerevisiae S288C
Method: Yeast (Saccharomyces cerevisiae S288C (α SUC2mal mel gap2 CUP1)) were incubated at 25° C. on YPD medium (yeast extract 1%, polypepton 2%, glucose 2%). One of toxic chemical substances was added to the cells at logarithmic growth phase, and the cells were further incubated for two hours. Cells were cultured without any chemical substance in the same condition, and were used as control. Concentrations of the chemical substances were defined to inhibit the growth of the yeast but not lead to death.
After completion of the incubation, the culture was centrifuged to collect the cells. To the cells, sodium acetate buffer (50 mM sodium acetate, 10 mM EDTA, 1% SDS) was added, and the mixture was shaken at 65° C. for five minutes, followed by returning to room temperature, and obtaining the supernatant, of which the procedures were repeated two times. To the supernatant, ½ amount of a solution of phenol/chloroform was added, and the mixture was centrifuged to give a supernatant, which was added with an equal amount of chloroform, and the mixture was centrifuged to give a supernatant. To the supernatant, an equal amount of isopropanol containing 0.3 M sodium acetate was added, and the mixture was allowed to stand at room temperature for 30 minutes, after which the mixture was centrifuged to give a sediment of the whole RNAs. Seventy % ethanol was added to the sediment, and the mixture was again centrifuged to give a sediment, which was then dried and dissolved in water. mRNA was isolated from the whole RNAs as followings. In view of the fact that a poly A chain is attached to the 3′ terminus of mRNA, a polynucleotide having a poly T structure which was immobilized on the surface of latex beads was used to trap the mRNA, and then the mRNA was washed and eluted with spine column (Oligotex-dT30<Super>mRNA Purification Kit, Takara). Reverse transcription of the mRNA was conducted with a reverse transcriptase (Super Script II Reverse Transcriptase; catalogue No. 18064-014, GibcoBRL) using fluorescence-labeled nucleotides to give cDNAs that were introduced with Cy3-dUTP or Cy5-dUTP during the reverse transcription.
The labeled cDNAs were dissolved in TE buffer (10mM Tris-HCl/1 mM EDTA, pH8.0), and the solution was dropped on the DNA chip containing the whole genes of yeast (DNA Chip Research Inc. Japan) so that the cDNAs were hybridized on the DNA chip at 65° C. for over 12 hours. The fluoresces intensity of the DNA chip was read with a scanner, and the ratio relative to the fluorescence intensity resulting from the absence of chemical substance was estimated as the following, which is shown in Tables 1 to 9: […]

Measured: The level of expressed mRNA in the presence of chemical substance/The level of expressed mRNA in the absence of chemical substance

[Cl][Cd][Cl] [(2), CdCl2]
9.0: yeast gene YLR136C
0.9: yeast gene YBL005W-A | yeast gene YDR084C | yeast gene YDR115W | yeast gene YEL042W | yeast gene YFL022C | yeast gene YGR189C | yeast gene YKL013C | yeast gene YMR004W | yeast gene YOR036W | yeast gene YOR181W
2.8: yeast gene YGL158W
1.0: yeast gene YCR004C | yeast gene YDL008W | yeast gene YDL238C | yeast gene YDR259C | yeast gene YIL140W | yeast gene YLR250W | yeast gene YLR429W | yeast gene YOL013C | yeast gene YPL089C | yeast gene YPR108W
2.7: yeast gene YBL078C
0.5: yeast gene YER107C | yeast gene YIL123W | yeast gene YMR094W
0.7: yeast gene YCR071C | yeast gene YDR388W | yeast gene YGL229C | yeast gene YLR391W | yeast gene YMR275C | yeast gene YOR198C
4.3: yeast gene YOR383C
1.6: yeast gene YER130C | yeast gene YOR132W
2.3: yeast gene YDR481C
4.4: yeast gene YOL164W
2.1: yeast gene YBR214W | yeast gene YDR055W | yeast gene YNL006W
0.6: yeast gene YKL008C | yeast gene YKL096W | yeast gene YOR355W
0.8: yeast gene YDR432W | yeast gene YGR257C | yeast gene YHR142W | yeast gene YJL073W | yeast gene YJR004C | yeast gene YKL193C
1.9: yeast gene YLR120C
4.6: yeast gene YHR139C
1.1: yeast gene YCR088W | yeast gene YDR104C | yeast gene YDR358W | yeast gene YFL028C | yeast gene YHR004C | yeast gene YHR071W | yeast gene YJR086W | yeast gene YKL039W | yeast gene YMR219W | yeast gene YOR124C | yeast gene YOR259C | yeast gene YPR103W
2.0: yeast gene YCL027W | yeast gene YKL165C
2.9: yeast gene YEL066W | yeast gene YGR213C | yeast gene YLR356W
1.2: yeast gene YAR010C | yeast gene YBL043W | yeast gene YER039C | yeast gene YFL043C | yeast gene YGR136W | yeast gene YLR362W | yeast gene YMR314W | yeast gene YNR010W
14.3: yeast gene YMR104C
1.3: yeast gene YDR510W | yeast gene YNR069C | yeast gene YOR117W | yeast gene YOR157C | yeast gene YOR185C | yeast gene YOR288C
6.4: yeast gene YNL093W
6.9: yeast gene YLR178C
3.3: yeast gene YLR327C | yeast gene YPL154C
1.4: yeast gene YBL041W | yeast gene YDR315C | yeast gene YMR276W | yeast gene YNL333W | yeast gene YOR261C
2.4: yeast gene YNL007C
1.8: yeast gene YDR085C | yeast gene YJL116C | yeast gene YMR226C
1.5: yeast gene YJL089W | yeast gene YPL149W
2.5: yeast gene YCL020W | yeast gene YPL109C
